Measurements reported in ChEMBL document CHEMBL5260838 (J Med Chem, 2019).
In brackets after ≈: the same amount, converted by molar mass. Activity calls are given as the source filed them. The calls are words filed in the database; no cut-off is given here.

Legend:
[1] = biological target: Sodium channel protein type 9 subunit alpha (Homo sapiens, UniProt Q15858); assay: Displacement of [3H]GX-545 from human Nav1.7 alpha subunit expressed in HEK293 cells co-expressing beta1 subunit by liquid scintillation counting analysis; format: cell-based
Cytochrome P450 3A4 = Cytochrome P450 3A4 (Homo sapiens, UniProt P08684); assay: Inhibition of CYP3A4 (unknown origin); format: ADME
Cytochrome P450 2C9 = Cytochrome P450 2C9 (Homo sapiens, UniProt P11712); assay: Inhibition of CYP2C9 (unknown origin); format: ADME
Chain of Cytochrome P450 2C9 (P11712 whole entry): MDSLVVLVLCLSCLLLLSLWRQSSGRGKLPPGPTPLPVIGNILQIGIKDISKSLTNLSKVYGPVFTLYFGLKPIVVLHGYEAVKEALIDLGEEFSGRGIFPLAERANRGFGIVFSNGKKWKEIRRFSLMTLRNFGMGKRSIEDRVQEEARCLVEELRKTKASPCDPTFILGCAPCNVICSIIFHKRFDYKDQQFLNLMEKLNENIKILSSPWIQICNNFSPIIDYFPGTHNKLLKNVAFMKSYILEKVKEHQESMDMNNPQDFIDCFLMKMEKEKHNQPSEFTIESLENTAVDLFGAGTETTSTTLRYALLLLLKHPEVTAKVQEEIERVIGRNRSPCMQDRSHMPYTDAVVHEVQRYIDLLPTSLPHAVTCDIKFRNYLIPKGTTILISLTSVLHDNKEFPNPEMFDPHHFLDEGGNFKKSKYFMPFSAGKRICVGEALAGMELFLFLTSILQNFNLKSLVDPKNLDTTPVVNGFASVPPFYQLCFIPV

Cytochrome P450 2D6 = Cytochrome P450 2D6 (Homo sapiens, UniProt P10635); assay: Inhibition of CYP2D6 (unknown origin); format: ADME
Chain of Cytochrome P450 2D6 (P10635 whole entry): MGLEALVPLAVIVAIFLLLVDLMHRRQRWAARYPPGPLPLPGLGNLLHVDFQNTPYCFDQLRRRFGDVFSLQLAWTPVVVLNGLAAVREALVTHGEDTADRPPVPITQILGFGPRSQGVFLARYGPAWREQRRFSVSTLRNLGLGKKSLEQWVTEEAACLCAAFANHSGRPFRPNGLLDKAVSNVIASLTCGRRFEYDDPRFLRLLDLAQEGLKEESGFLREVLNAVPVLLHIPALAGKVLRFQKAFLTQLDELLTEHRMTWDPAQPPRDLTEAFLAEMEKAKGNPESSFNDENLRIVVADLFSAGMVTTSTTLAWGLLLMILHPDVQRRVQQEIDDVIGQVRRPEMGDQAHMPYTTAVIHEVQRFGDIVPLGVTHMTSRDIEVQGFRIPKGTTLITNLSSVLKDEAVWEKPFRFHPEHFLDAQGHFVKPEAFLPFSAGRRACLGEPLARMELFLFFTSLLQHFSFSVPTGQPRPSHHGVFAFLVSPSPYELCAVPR

[2] = Apparent permeability from apical to basolateral side in MDCK1 cells; format: ADME, cell-based, Canis lupus familiaris; conditions: dog, MDCK
[3] = Protein binding in human plasma; format: ADME, cell-free; conditions: read-out: PPB (converted)
[4] = Protein binding in mouse plasma; format: ADME, cell-free; conditions: read-out: PPB (converted)
[5] = biological target: Sodium channel protein type 9 subunit alpha (Mus musculus, UniProt Q62205); assay: Inhibition of mouse Nav1.7 at -60 mV holding potential by PatchXpress automated voltage clamp electrophysiology technique
[6] = biological target: Sodium channel protein type 9 subunit alpha (Rattus norvegicus, UniProt O08562); assay: Inhibition of rat Nav1.7 at -60 mV holding potential by PatchXpress automated voltage clamp electrophysiology technique
Chain of Sodium channel protein type 9 subunit alpha (Rattus norvegicus, UniProt O08562) (O08562 whole entry): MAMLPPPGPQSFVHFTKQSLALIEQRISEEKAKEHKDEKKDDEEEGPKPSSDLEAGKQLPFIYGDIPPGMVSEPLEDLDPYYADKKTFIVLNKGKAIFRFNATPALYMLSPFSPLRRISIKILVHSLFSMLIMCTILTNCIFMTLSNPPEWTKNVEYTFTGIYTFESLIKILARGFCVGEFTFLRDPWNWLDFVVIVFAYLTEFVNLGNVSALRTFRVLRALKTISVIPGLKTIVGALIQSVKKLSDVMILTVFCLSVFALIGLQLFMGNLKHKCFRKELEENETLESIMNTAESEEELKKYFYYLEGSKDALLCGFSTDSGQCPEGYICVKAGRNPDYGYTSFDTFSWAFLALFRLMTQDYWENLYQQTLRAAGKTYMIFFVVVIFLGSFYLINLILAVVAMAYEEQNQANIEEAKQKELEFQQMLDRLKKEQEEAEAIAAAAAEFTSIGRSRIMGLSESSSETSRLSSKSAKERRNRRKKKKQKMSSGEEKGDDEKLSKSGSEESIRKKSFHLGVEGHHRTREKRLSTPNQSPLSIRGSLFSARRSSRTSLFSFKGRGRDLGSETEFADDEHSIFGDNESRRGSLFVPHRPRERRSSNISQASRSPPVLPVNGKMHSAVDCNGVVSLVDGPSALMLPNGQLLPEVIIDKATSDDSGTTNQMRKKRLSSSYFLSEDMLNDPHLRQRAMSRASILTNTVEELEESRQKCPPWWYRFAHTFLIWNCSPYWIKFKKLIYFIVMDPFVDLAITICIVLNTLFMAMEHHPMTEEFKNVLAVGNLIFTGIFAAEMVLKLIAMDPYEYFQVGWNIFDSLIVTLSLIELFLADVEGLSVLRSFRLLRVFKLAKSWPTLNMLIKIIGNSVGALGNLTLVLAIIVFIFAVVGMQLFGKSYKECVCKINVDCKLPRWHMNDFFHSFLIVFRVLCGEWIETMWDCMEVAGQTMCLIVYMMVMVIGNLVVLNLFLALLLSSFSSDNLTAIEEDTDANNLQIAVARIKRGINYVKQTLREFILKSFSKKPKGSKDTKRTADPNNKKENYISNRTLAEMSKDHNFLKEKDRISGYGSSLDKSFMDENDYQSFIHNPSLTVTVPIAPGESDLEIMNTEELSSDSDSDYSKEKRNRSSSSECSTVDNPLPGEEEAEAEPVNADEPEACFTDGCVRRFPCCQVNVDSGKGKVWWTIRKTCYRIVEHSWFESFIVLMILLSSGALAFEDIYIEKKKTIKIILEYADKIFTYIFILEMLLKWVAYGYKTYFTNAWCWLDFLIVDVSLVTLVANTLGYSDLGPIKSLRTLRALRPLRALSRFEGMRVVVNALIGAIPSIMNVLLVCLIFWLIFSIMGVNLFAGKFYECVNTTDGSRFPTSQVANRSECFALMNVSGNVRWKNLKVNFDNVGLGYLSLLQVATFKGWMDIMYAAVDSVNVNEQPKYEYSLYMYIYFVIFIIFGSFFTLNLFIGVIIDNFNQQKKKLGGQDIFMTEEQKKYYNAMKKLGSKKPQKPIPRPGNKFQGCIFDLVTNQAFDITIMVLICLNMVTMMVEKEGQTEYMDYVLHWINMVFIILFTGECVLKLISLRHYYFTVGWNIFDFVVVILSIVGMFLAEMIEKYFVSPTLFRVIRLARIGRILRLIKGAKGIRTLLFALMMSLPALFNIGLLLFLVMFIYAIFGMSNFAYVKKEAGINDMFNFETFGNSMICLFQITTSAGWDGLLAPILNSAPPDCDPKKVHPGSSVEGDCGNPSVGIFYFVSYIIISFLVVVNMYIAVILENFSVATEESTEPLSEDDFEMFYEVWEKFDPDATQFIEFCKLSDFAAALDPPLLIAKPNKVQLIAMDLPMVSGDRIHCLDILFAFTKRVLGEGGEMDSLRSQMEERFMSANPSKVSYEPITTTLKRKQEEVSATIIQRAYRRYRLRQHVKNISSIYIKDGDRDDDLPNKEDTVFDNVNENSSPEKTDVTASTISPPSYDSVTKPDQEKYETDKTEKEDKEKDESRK

[7] = biological target: Sodium channel protein type 5 subunit alpha (Homo sapiens, UniProt Q14524); assay: Inhibition of human Nav1.5 alpha subunit expressed in HEK293 cells co-expressing beta1 subunit at -60 mV holding potential by PatchXpress automated voltage clamp electrophysiology technique; format: cell-based
Chain of Sodium channel protein type 5 subunit alpha (Q14524 whole entry): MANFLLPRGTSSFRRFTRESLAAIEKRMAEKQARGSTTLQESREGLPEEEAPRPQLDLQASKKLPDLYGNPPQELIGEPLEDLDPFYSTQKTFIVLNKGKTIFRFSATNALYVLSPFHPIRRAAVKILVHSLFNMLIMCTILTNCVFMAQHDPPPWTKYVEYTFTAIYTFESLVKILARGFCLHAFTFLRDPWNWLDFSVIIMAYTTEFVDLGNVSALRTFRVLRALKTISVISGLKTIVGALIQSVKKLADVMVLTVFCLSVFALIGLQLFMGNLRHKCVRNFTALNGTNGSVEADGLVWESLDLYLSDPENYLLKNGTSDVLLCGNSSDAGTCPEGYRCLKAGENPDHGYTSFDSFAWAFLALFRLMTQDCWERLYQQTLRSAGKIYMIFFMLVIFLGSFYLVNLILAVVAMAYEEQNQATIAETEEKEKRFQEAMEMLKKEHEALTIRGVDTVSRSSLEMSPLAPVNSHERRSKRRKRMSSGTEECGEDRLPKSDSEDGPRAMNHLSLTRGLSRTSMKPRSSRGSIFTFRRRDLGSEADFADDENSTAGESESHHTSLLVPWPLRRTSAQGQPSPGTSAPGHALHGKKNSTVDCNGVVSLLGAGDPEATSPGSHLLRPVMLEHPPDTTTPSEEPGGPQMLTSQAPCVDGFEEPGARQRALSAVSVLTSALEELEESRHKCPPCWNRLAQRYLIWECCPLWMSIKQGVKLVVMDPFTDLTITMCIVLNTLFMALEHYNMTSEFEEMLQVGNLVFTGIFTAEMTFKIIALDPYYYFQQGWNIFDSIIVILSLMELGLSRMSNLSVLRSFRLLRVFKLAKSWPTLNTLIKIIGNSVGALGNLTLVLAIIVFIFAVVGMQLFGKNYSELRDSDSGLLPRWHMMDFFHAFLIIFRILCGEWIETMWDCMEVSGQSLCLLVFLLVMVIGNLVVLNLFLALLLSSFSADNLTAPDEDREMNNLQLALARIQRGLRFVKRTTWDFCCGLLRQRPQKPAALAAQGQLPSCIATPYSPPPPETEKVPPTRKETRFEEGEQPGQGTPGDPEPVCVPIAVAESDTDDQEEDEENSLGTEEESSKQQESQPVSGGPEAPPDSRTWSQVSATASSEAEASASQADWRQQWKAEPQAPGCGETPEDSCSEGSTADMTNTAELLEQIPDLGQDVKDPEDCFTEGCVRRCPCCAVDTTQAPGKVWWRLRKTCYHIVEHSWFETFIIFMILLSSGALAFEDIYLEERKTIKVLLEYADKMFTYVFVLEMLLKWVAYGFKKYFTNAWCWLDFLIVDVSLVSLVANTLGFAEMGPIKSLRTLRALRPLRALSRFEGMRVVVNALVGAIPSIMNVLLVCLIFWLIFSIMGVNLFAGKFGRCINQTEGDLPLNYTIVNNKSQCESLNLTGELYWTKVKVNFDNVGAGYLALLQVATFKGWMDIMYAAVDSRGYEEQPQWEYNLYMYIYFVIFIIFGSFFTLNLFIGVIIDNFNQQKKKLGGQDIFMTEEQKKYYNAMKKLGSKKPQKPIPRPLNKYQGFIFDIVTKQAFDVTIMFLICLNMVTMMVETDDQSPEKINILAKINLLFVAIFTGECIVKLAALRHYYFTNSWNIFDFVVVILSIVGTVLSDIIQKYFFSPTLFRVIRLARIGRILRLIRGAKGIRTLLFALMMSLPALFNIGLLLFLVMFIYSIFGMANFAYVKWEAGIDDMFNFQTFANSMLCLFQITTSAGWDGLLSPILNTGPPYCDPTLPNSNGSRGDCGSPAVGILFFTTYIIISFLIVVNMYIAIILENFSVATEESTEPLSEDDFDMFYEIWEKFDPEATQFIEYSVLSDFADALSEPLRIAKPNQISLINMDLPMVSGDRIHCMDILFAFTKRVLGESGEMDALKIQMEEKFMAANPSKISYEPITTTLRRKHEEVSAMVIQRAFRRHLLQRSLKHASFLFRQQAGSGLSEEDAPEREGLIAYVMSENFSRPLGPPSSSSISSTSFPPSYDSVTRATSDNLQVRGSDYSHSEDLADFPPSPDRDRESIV

[8] = biological target: Sodium channel protein type 2 subunit alpha (Homo sapiens, UniProt Q99250); assay: Inhibition of human Nav1.2 alpha subunit expressed in HEK293 cells co-expressing beta1 subunit at -35 mV holding potential by PatchXpress automated voltage clamp electrophysiology technique; format: cell-based
[9] = biological target: Sodium channel protein type 1 subunit alpha (Homo sapiens, UniProt P35498); assay: Inhibition of human Nav1.1 alpha subunit expressed in HEK293 cells co-expressing beta1 subunit at -40 mV holding potential by PatchXpress automated voltage clamp electrophysiology technique; format: cell-based
[10] = biological target: Sodium channel protein type 10 subunit alpha (Mus musculus, UniProt Q6QIY3); assay: Inhibition of TTX-resistant Nav1.8 in mouse dorsal root ganglion neuron by voltage clamp recording; format: tissue-based, DRG neuron
[11] = Efflux ratio of apparent permeability across basolateral to apical side over apical to basolateral side in MDCK1 cells; format: ADME, cell-based, Canis lupus familiaris; conditions: dog, MDCK
[12] = Kinetic solubility of compound; format: physicochemical; conditions: read-out: Kinetic_solubility
MDR1 [13] = assay: Apparent permeability from apical to basolateral side in MDCK1 cells expressing MDR1; format: ADME, cell-based, Canis lupus familiaris; conditions: dog, MDCK-MDR1
MDR1 [14] = assay: Efflux ratio of apparent permeability across basolateral to apical side over apical to basolateral side in MDCK1 cells expressing MDR1; format: ADME, cell-based, Canis lupus familiaris; conditions: dog, MDCK-MDR1
[15] = system: mouse breast cancer resistant protein (Bcrp); assay: Efflux ratio of apparent permeability across basolateral to apical side over apical to basolateral side MDCK-II cells expressing mouse breast cancer resistant protein; format: ADME, cell-based, Canis lupus familiaris; conditions: dog
[16] = Half-life in FVB mouse at 1 mg/kg, iv; format: ADME, organism-based; conditions: in vivo, iv, 1 mg/kg
[17] = Half-life in FVB mouse at 30 mg/kg, po; format: ADME, organism-based; conditions: in vivo
[18] = Cmax in FVB mouse at 30 mg/kg, po; format: ADME, organism-based; set-up: dose 30 mg/kg, route po; conditions: in vivo
[19] = AUC in FVB mouse at 30 mg/kg, po; format: ADME, organism-based; set-up: dose 30 mg/kg, route po; conditions: in vivo
[20] = Oral bioavailability in FVB mouse at 30 mg/kg; format: ADME, organism-based; conditions: in vivo
[21] = Half-life in Sprague-Dawley rat at 1 mg/kg, iv; format: ADME, organism-based; conditions: in vivo
[22] = Clearance in Sprague-Dawley rat at 1 mg/kg, iv; format: ADME, organism-based; conditions: in vivo
[23] = Volume of distribution at steady state in Sprague-Dawley rat at 1 mg/kg, iv; format: ADME, organism-based; conditions: in vivo, read-out: Vdss
[24] = Cmax in Sprague-Dawley rat at 5 mg/kg, po; format: ADME, organism-based; set-up: dose 5 mg/kg, route po; conditions: in vivo
[25] = AUC in Sprague-Dawley rat at 5 mg/kg, po; format: ADME, organism-based; set-up: dose 5 mg/kg, route po; conditions: in vivo
[26] = Oral bioavailability in Sprague-Dawley rat at 5 mg/kg; format: ADME, organism-based; conditions: in vivo
[27] = Half-life in Beagle dog at 0.5 mg/kg, iv; format: ADME, organism-based, Canis lupus familiaris; conditions: in vivo
[28] = Clearance in Beagle dog at 0.5 mg/kg, iv; format: ADME, organism-based, Canis lupus familiaris; conditions: in vivo
[29] = Volume of distribution at steady state in Beagle dog at 0.5 mg/kg, iv; format: ADME, organism-based, Canis lupus familiaris; conditions: in vivo, read-out: Vdss
[30] = Cmax in Beagle dog at 1 mg/kg, po; format: ADME, organism-based, Canis lupus familiaris; set-up: dose 1 mg/kg, route po; conditions: in vivo
[31] = AUC in Beagle dog at 1 mg/kg, po; format: ADME, organism-based, Canis lupus familiaris; set-up: dose 1 mg/kg, route po; conditions: in vivo
[32] = Oral bioavailability in Beagle dog at 1 mg/kg; format: ADME, organism-based, Canis lupus familiaris; conditions: in vivo
Mus musculus [33] = assay: Analgesic activity against formalin-induced pain in FVB mouse model assessed as reduction in formalin-induced pain at 10 mg/kg, po administered for 120 mins prior to formalin challenge and measured after 11 to 40 mins; format: functional, organism-based; conditions: time 131-160 min
Mus musculus [34] = assay: Antinociceptive activity against aconitine-induced pain in FVB mouse model expressing human Nav 1.7 I848T mutant assessed as reduction in nociceptive behavior at 0.1 mg/kg, po administered 120 mins prior to aconitine administration and measured after 70 mins relative to control; format: functional; set-up: scale not given: the % may be the effect or the level left; conditions: time 190 min, 3.167 h
Mus musculus [35] = assay: Antinociceptive activity against aconitine-induced pain in FVB mouse model expressing human Nav 1.7 I848T mutant assessed as reduction in nociceptive behavior at 0.3 mg/kg, po administered 120 mins prior to aconitine administration and measured after 70 mins relative to control; format: functional; set-up: scale not given: the % may be the effect or the level left; conditions: time 190 min, 3.167 h
Mus musculus [36] = assay: Antinociceptive activity against aconitine-induced pain in FVB mouse model expressing human Nav 1.7 I848T mutant assessed as reduction in nociceptive behavior at 1 mg/kg, po administered 120 mins prior to aconitine administration and measured after 70 mins relative to control; format: functional; set-up: scale not given: the % may be the effect or the level left; conditions: time 190 min, 3.167 h
Mus musculus [37] = assay: Antinociceptive activity against aconitine-induced pain in FVB mouse model expressing human Nav 1.7 I848T mutant assessed as reduction in nociceptive behavior at 3 mg/kg, po administered 120 mins prior to aconitine administration and measured after 70 mins relative to control; format: functional; set-up: scale not given: the % may be the effect or the level left; conditions: time 190 min, 3.167 h
Mus musculus [38] = assay: Antinociceptive activity against aconitine-induced pain in FVB mouse model expressing human Nav 1.7 I848T mutant assessed as reduction in nociceptive behavior at 10 mg/kg, po administered 120 mins prior to aconitine administration and measured after 70 mins relative to control; format: functional; set-up: scale not given: the % may be the effect or the level left; conditions: time 190 min, 3.167 h
[39] = Unbound plasma concentration in FVB mouse model of aconitine-induced pain expressing human Nav1.7 I848T mutant at 0.3 mg/kg, po administered 120 mins prior to aconitine administration and measured after 70 mins by UPLC-ESI MS/MS analysis; format: ADME, organism-based; conditions: in vivo, 3.167 h, time 190 min
[40] = Drug concentration in brain of FVB mouse model of aconitine-induced pain expressing human Nav1.7 I848T mutant at 10 mg/kg, po administered 120 mins prior to aconitine administered and measured after 70 mins by UPLC-ESI MS/MS analysis; format: ADME, organism-based; conditions: time 190 min, read-out: Ct
[41] = Drug concentration in plasma of orally dosed formalin-induced FVB mouse model of pain measured after 3 hrs by UPLC-ESI […] analysis; format: ADME, organism-based; conditions: route po

## CC1(COc2cc(F)c(C(=O)NS(=O)(=O)C3CC3)cc2C2CC2)CCC2(CC1)CC2
[1]
  IC50: 15 nM
Cytochrome P450 3A4
  IC50: > 10000 nM
Cytochrome P450 2C9
  IC50: 6100 nM
Cytochrome P450 2D6
  IC50: > 10000 nM
[2]
  Papp A→B: 9 ×10⁻⁶ cm/s
[3]
  fraction unbound: 0.001
[4]
  fraction unbound: 0.001
[5]
  IC50: 2.2 nM
[6]
  IC50: 3.7 nM
[7]
  IC50: 50 nM
[8]
  IC50: 2 nM
[9]
  IC50: 6 nM
[10]
  IC50: > 10000 nM
[11]
  efflux ratio: 1
[12]
  solubility kinetic: 10 µM (≈ 4.36 µg/mL)
MDR1 [13]
  Papp A→B: 3.7 ×10⁻⁶ cm/s
MDR1 [14]
  efflux ratio: 1.2
[15]
  efflux ratio: 2.1
[16]
  t1/2: 1.5 h
[17]
  half-life: 9.2 h
[18]
  Cmax: 22 µM
[19]
  AUC: 113 µM·h
[20]
  bioavailability: 31%
[21]
  half-life: 8.1 h
[22]
  clearance: 1.2 mL/min/kg
[23]
  Vd: 0.88 L/kg
[24]
  Cmax: 13 µM
[25]
  AUC: 78 µM·h
[26]
  bioavailability: 49%
[27]
  half-life: 5.4 h
[28]
  clearance: 0.3 mL/min/kg
[29]
  Vd: 0.14 L/kg
[30]
  Cmax: 9 µM
[31]
  AUC: 83 µM·h
[32]
  bioavailability: 68%
Mus musculus [33]
  Activity: Active
Mus musculus [34]
  Activity: 10%
Mus musculus [35]
  Activity: 78%
Mus musculus [36]
  Activity: 86%
Mus musculus [37]
  Activity: 98%
Mus musculus [38]
  Activity: 99.5%
[39]
  Cp(f): 0.003 µM
[40]
  concentration at 3.167 h: 6.2 µM
[41]
  concentration at 3 h: 50 µM
